Where “and” joins values, the source holds several entries; their conditions need not be identical. Identical values can stand only once.
Test system: Plasmodium falciparum
Experiment: GSK_TCMDC: Inhibition of Plasmodium falciparum 3D7 in whole erythrocytes, using parasite LDH activity as an index of growth.
Assay type: functional, organism-based

| SMILES | XC50 | XC50 (Plasmodium falciparum, 3D7) |
| --- | --- | --- |
| O=C(/C=C/c1ccc([N+](=O)[O-])cc1)NC1CCC(CN2CCC(c3c[nH]c4ccccc34)CC2)CC1 (stereo not given) | 835 nM | 794 nM |
| O[C@@H](c1cc(C(F)(F)F)nc2c(C(F)(F)F)cccc12)[C@H]1CCCCN1 | 69.2 nM | 73.7 nM |
| Cc1cc(I)ccc1Nc1nc2nonc2nc1Nc1ccc(I)cc1C |  | 510 nM |
| Cc1nc2c(c(O)c1Cl)-c1ccc(Oc3cccc(C(F)(F)F)c3)cc1C2=O | 36.9 nM |  |
| C[C@H](Cc1ccc(CCc2ccc(C[C@@H](C)NC[C@H](O)c3cccc(Cl)c3)cc2)cc1)NC[C@H](O)c1cccc(Cl)c1 |  | 935 nM |
| C/C=C1\CN2CC[C@H]1C[C@H]2[C@H](O)c1ccnc2ccc(OC)cc12 | 219 nM |  |
| CN1CCN(Cc2ccc(-c3ccc4c(Nc5ccc(Oc6ccccn6)cc5)ccnc4c3)o2)CC1 |  | 145 nM |
| COc1cc(Cc2cnc(N)nc2N)ccc1OCc1ccc(-c2csnn2)cc1 |  | 628 nM |
| C#CCOc1ccc(CC(C)NCC(O)c2cccc(C(F)(F)F)c2)cc1 (stereo not given) | 1190 nM | 1030 nM |
| COc1cc2ncnc(Nc3ccc(OCc4ccccc4Br)c(Cl)c3)c2cc1OC |  | 1280 nM |
| O=C(Nc1ccc(Cn2ncc(N3CCCNCC3)c(Cl)c2=O)cc1)Nc1ccc(-c2ccccc2)cc1 | 815 nM |  |
| N#Cc1ccc(CN2CCCN(c3ccc(NC(=O)c4ccc(F)cc4)cc3)CC2)cc1 |  | 1280 nM |
| Cc1[nH]c2cc(F)ccc2c(=O)c1Cc1ccc(Cl)cc1.Cc1[nH]c2cccc(F)c2c(=O)c1Cc1ccc(Cl)cc1 | 232 nM | 348 nM |
| CCOC(=O)c1c[nH]c2c(sc3cc(OC)ccc32)c1=O |  | 387 nM |
| COc1cc(/C=C/C(=O)NC2CCC(CN3CCC(c4c[nH]c5ccccc45)CC3)CC2)ccc1O (stereo not given) | 791 nM | 809 nM |
| COc1cccc(/C=C/C(=O)NC2CCC(CN3CCC(c4c[nH]c5ccccc45)CC3)CC2)c1 (stereo not given) | 834 nM | 765 nM |
| c1cc(CN2CCN(CCN3CCOCC3)CC2)cc(-c2cccc(-c3nc4ccccc4[nH]3)c2)c1 |  | 236 nM |
| C[C@H](CNc1ccnc(Nc2ccc3[nH]c(=O)[nH]c3c2)n1)c1ccccc1 | 700 nM |  |
| COc1ccc(C=CC(=O)NC2CCC(CN3CCC(c4c[nH]c5ccccc45)CC3)CC2)cc1 (stereo not given) | 807 nM | 782 nM |
| O=C(/C=C/c1ccc(Cl)c(Cl)c1)NCCCCCN1CCC(c2c[nH]c3ccccc23)C(O)C1 (stereo not given) | 819 nM | 795 nM |

| SMILES | XC50 | XC50 (Plasmodium falciparum, 3D7) |
| --- | --- | --- |
| O=C(C=Cc1cccc(Cl)c1Cl)NC1CCC(CN2CCC(c3c[nH]c4ccccc34)CC2)CC1 (stereo not given) | 1140 nM | 680 nM |
| N#Cc1c(Cl)cccc1Oc1ccc(S(=O)(=O)NC2CCC(CN3CCC(c4c[nH]c5ccccc45)CC3)CC2)cc1 (stereo not given) | 714 nM | 1070 nM |
| O=C(Nc1ccccc1Cl)NC1CCC(CN2CCC(c3c[nH]c4ccccc34)CC2)CC1 (stereo not given) | 753 nM | 803 nM |
| Cc1ccc2[nH]cc(C3CCN(CC4CCC(NC(=O)/C=C/c5ccc(Cl)c(Cl)c5)CC4)CC3)c2c1 (stereo not given) | 552 nM | 840 nM |
| O=C(/C=C/c1c(Cl)cccc1Cl)NC1CCC(CN2CCC(c3c[nH]c4ccccc34)CC2)CC1 (stereo not given) | 814 nM and 373 nM |  |
| NC(=O)c1ccc2[nH]cc(C3CCN(CC4CCC(NC(=O)/C=C/c5ccc(Cl)c(Cl)c5)CC4)CC3)c2c1 (stereo not given) | 867 nM | 761 nM |
| O=C(C=Cc1ccccc1C(F)(F)F)NC1CCC(CN2CCC(c3c[nH]c4ccccc34)CC2)CC1 (stereo not given) | 902 nM | 677 nM |
| O=C(C=Cc1ccc(F)c(Br)c1)NC1CCC(CN2CCC(c3c[nH]c4ccccc34)CC2)CC1 (stereo not given) | 842 nM | 789 nM |
| O=C(NC1CCC(CN2CCC(c3c[nH]c4ccccc34)CC2)CC1)c1cc2ccccc2s1 (stereo not given) | 725 nM | 729 nM |
| O=C(Nc1cccc(-c2cccc(-c3nc4ccccc4[nH]3)c2)c1)NC1CC1c1ccccc1 (stereo not given) | 898 nM | 1070 nM |
| CC(C)(C)c1cc(/C=C/C(=O)NC2CCC(CN3CCC(c4c[nH]c5ccccc45)CC3)CC2)cc(C(C)(C)C)c1O (stereo not given) | 719 nM | 705 nM |
| Cc1ccc(/C=C/C(=O)NC2CCC(CN3CCC(c4c[nH]c5ccccc45)CC3)CC2)cc1 (stereo not given) | 798 nM | 920 nM |
| CSc1nccc(-c2ccc(S(=O)(=O)NC3CCC(CN4CCC(c5c[nH]c6ccccc56)CC4)CC3)s2)n1 (stereo not given) | 811 nM and 254 nM |  |
| CN1CCC(N2CCN(Cc3cccc(-c4ccc(-c5nc6cc(C(F)(F)F)ccc6[nH]5)cc4)c3)CC2)CC1 |  | 140 nM |
| O=C(/C=C/c1ccccc1Cl)NC1CCC(CN2CCC(c3c[nH]c4ccccc34)CC2)CC1 (stereo not given) | 849 nM | 603 nM |
| O=C(/C=C/c1ccc(Cl)c(Cl)c1)NCCCCCN1C2CCC1CC(c1c[nH]c3ccc(O)cc13)C2 (stereo not given) | 879 nM | 998 nM |
| O=C(C=C1c2ccccc2-c2ccccc21)NC1CCC(CN2CCC(c3c[nH]c4ccccc34)CC2)CC1 (stereo not given) | 697 nM | 795 nM |
| COC(=O)c1sccc1NC(=S)NC1CCC(CN2CCC(c3c[nH]c4ccccc34)CC2)CC1 (stereo not given) | 574 nM | 915 nM |
| O=C(Nc1cc(C(F)(F)F)cc(C(F)(F)F)c1)NC1CCC(CN2CCC(c3c[nH]c4ccccc34)CC2)CC1 (stereo not given) | 461 nM | 810 nM |
| COc1ccc(-c2ccccc2)cc1NC(=S)NC1CCC(CN2CCC(c3c[nH]c4ccccc34)CC2)CC1 (stereo not given) | 740 nM | 652 nM |

| SMILES | XC50 | XC50 (Plasmodium falciparum, 3D7) |
| --- | --- | --- |
| O=C(C=Cc1ccc(-c2ccccc2)cc1)NC1CCC(CN2CCC(c3c[nH]c4ccccc34)CC2)CC1 (stereo not given) | 807 nM | 738 nM |
| N#CCCN1CCN(Cc2cccc(-c3ccc(-c4nc5cc(C(F)(F)F)ccc5[nH]4)cc3)c2)CC1 |  | 744 nM |
| O=C(NCCCCN1CCCC2c3ccc(O)cc3CCC21)c1ccc(-c2ccccc2)cc1 (stereo not given) | 945 nM | 732 nM |
| CCCCCCOc1ccc(/C(N)=N\Cc2ccccc2)c2c1CCCC2 |  | 1270 nM |
| COc1ccc2nc(C)cc(N/N=C/C=C/c3ccccc3)c2c1 |  | 701 nM |
| CC(C)CCNC(=O)C1Cc2c([nH]c3ccc(Br)cc23)C2(CCN(Cc3ccccc3)CC2)N1 (stereo not given) |  | 817 nM |
| COc1ccc2nccc([C@@H](O)CN3CCC(NCc4nc5c(cc4Cl)SCC(=O)N5)C(F)C3)c2c1 (stereo not given in full) | 759 nM | 505 nM |
| CCc1c(CCNCCCCCCNCCc2ccc(Br)cc2)ccc(OC)c1OC |  | 232 nM |
| COc1ccc(CCn2c(=N)c(C(=O)NCc3cccnc3)cc3c(=O)n4ccccc4nc32)cc1 |  | 883 nM |
| Cc1ccc(/C=C/C(=O)NC2CCC(CN3CCC(c4c[nH]c5ccccc45)CC3)CC2)cc1C (stereo not given) | 821 nM | 832 nM |
| COc1cc(-c2nc(-c3ccncc3)c(-c3ccc4c(c3)CCC4=NO)[nH]2)ccc1OCCN1CCN(C)CC1 |  | 756 nM |
| O=C(/C=C/c1cccc2ccccc12)NC1CCC(CN2CCC(c3c[nH]c4ccccc34)CC2)CC1 (stereo not given) | 745 nM | 666 nM |
| Cc1ccc(C)c(C=CC(=O)NC2CCC(CN3CCC(c4c[nH]c5ccccc45)CC3)CC2)c1 (stereo not given) | 698 nM | 765 nM |
| COc1ccc(C[C@@H](C)NC[C@H](O)c2cccc(Cl)c2)cc1F | 992 nM |  |
| COC(=O)/C=C/c1ccc(CC(C)NCC(O)c2cccc(Cl)c2)cc1 (stereo not given) |  | 751 nM |
| Cc1ccc(CC(C)NC[C@H](O)c2cccc(Cl)c2)cc1 (stereo not given in full) | 927 nM |  |
| O=C(Nc1ccc(Cl)cc1)Nc1cccc(-c2ccc(-c3nc4cc(F)ccc4[nH]3)cc2)c1 |  | 47.5 nM |
| NC1=NC(c2ccccc2)(c2cccc(O)c2)C(=O)N1CCCc1ccccc1 (stereo not given) | 836 nM | 1230 nM |
